Measurements: patent publication US9598463B2, “Mucin hypersecretion inhibitors and methods of use” (BIOMARCK PHARMACEUTICALS, LTD., priority 2005, dated 2017)
Marks after values point to notes of the source that are not given here. Each block holds one compound with its values, some of them ahead of it. Where a SMILES comes first, the peptide text is derived from it. The star is where a group is joined. Myristoyl = CCCCCCCCCCCCCC(=O)*

Key:
[1] = Qualitative solubility of test peptides in 0.5 N saline; assay type: physicochemical; conditions: pH 6.5, 20° C. (table title)
Procedure: Various test peptides (1 to 5 mg each) were weighed out accurately in individual 2 mL screw cap glass vials and aliquots of 25 μL of 0.5 N saline, pH 6.5, were added at 25° C. and ambient pressure. The solubility was evaluated visually. If the test peptide dissolves completely with the first aliquot of saline, its solubility was calculated and designated as more than the calculated amount. […] Similarly, if 1.7 mg of a test peptide fails to dissolve in 1.7 mL of 0.5 N saline, its solubility is stated as <1.0 mg/mL.

[2] = Stability of test peptides in human plasma (LC/MS/MS, first order half-life); assay type: in vitro ADME
Procedure: (§1) Various test peptides in human plasma, human BALF, and CF patient mucus were analyzed to determine the susceptability of the test peptide to proteolysis in the biological fluids. […] The samples were analyzed either on the same day as received or stored at −20° C. and analyzed within the following two days.
Fresh human blood samples were collected in citrate buffered vacuutrainers (in absence of EDTA or heparin). Red blood cells (RBC) were removed by centrifugation of the blood at 4000×g for 10 min at 4° C. Plasma aliquots (0.9 mL) were then spiked with 0.1 mL of 0.5 mg/mL solution of the test peptide in 75 mM sodium acetate buffer at pH 7.0 and incubated in a water bath maintained at 37° C. Duplicate aliquots of 10 μL, were withdrawn at 5, 15, 30, 60, and 180 minutes intervals and immediately “quenched” with 990 μL of a solution consisting of 50% acetonitrile+50% water containing 0.2% formic acid. The samples were then subjected to liquid chromatography-mass spectrometry (LCMS) analysis.
(§2) All samples were analyzed using LC/MS/MS (MDS/SCIEX, API 4000 Model). Chromatography was performed using a Phenomenex Luna C18 column, while mass spectrometry was performed using positive ion electrospray ionization.
Calibration standards were analyzed by LCMS at concentrations of 0.100 μg/mL, 1.00 μg/mL, 10.0 μg/mL, and 100 μg/mL for each peptide, with the exception of the calibration standards for peptides myr-PEPTIDE 106, PEPTIDE 106, PEPTIDE 106-NH2, PEPTIDE 106, and cyclic peptide, cyc-PEPTIDE 106, in human mucus, which were analyzed at concentrations of 0.100 μg/mL, 1.00 μg/mL, 10.0 μg/mL, and 75 μg/mL. Standards were prepared in 1% human BALF, plasma, or mucus in 50/50 water/acetonitrile mixture containing 0.2% formic acid. The instrument response values for each set of standards were fit using a 1/(concentration)^2 linear least-squares line. Sample concentrations were calculated using the slope and intercept of this line. Concentrations outside of the calibration range were determined by extrapolating the calibration curve. […]
For the analysis of peptide concentration in plasma, duplicate calibration standards were analyzed at a concentration of 25 μg/mL and 50 μg/mL for each peptide. The instrument response values for each set of standards were fit through an intercept of 0 using an unweighted, linear least-squares line. Sample concentrations were calculated using the slope and intercept of this line. Concentrations outside of the calibration range were determined by extrapolating the calibration curve.
(§3) Watson fits the log transformed data with a least-squares line to determine parameters such as Cmax (maximum concentration), intercept, rate constant, slope, and T1/2 (half-life). The resulting kinetic parameters were based on the linear fit, not the actual concentration values.
(§4) Time-zero calibration standards in solution were not included as part of the kinetic profiles.

[3] = Stability of test peptides in human CF mucus (LC/MS/MS, first order half-life); assay type: in vitro ADME
Procedure: as §1
The frozen mucus (sputum) from a CF patient was thawed and mixed with 2 volumes of 75 mM sodium acetate buffer, pH 7 with the help of a glass tissue grinder, centrifuged at 10,000×g for 10 min at 4-8° C. The pellet was re-suspended in 1 volume of the acetate buffer and centrifuged. The two supernatants were combined and used as follows. The supernatant (450 μL) was spiked with 50 μL, of 0.5 mg/mL solution of the peptide in 75 mM sodium acetate buffer at pH 7.0 and processed and analyzed as described above.
as §2
(§5) Calibration standards were analyzed by LCMS at concentrations of 0.100 μg/mL, 1.00 μg/mL, 10.0 μg/mL, and 100 μg/mL for each peptide, with the exception of the calibration standards for peptides myr-PEPTIDE 106, PEPTIDE 106, PEPTIDE 106-NH2, PEPTIDE 106, and cyclic peptide, cyc-PEPTIDE 106, in human mucus, which were analyzed at concentrations of 0.100 μg/mL, 1.00 μg/mL, 10.0 μg/mL, and 75 μg/mL. Standards were prepared in 1% human BALF, plasma, or mucus in 50/50 water/acetonitrile mixture containing 0.2% formic acid. The instrument response values for each set of standards were fit using a 1/(concentration)^2 linear least-squares line. Sample concentrations were calculated using the slope and intercept of this line. Concentrations outside of the calibration range were determined by extrapolating the calibration curve.
as §3, §4

[4] = Stability of test peptides in human BALF (LC/MS/MS, first order half-life); assay type: in vitro ADME
Procedure: as §1
Samples of BALF collected from COPD patients were obtained and frozen. The BALF samples were thawed, mixed together and centrifuged at 10,000×g for 10 min at 4-8° C. The supernatant (0.9 mL) was spiked with 0.1 mL of 0.5 mg/mL solution of the peptide in 75 mM sodium acetate buffer at pH 7.0 and processed and analyzed as described above.
as §2, §5
Duplicate calibration standards were analyzed at a concentration of 50 μg/mL for each peptide. The instrument response values for each set of standards were fit through an intercept of 0 using an unweighted, linear least-squares line. Sample concentrations were calculated using the slope and intercept of this line.
For the analysis of peptide concentration in BALF samples, one 50 μg/mL calibration standard prepared in a mixture of BALF, water, acetonitrile, and formic acid was analyzed with each sample set.
as §3, §4

[5] = test system: methacholine-induced mucin hypersecretion; assay: Methacholine-induced mucin hypersecretion in ovalbumin-sensitized mouse model of asthma, BAL mucin ELISA (Balb/C mice); assay type: in vivo; conditions: for Mucin Secretion % control: Table II, peptides at 100 μM, 50 μL intratracheal 15 min before methacholine; for Mucin Secretion % of control: Table IV
Description: Experiments were designed to test whether or not the MANS peptide and other test peptides related thereto inhibit hypersecretion of mucin in murine airway in vivo. The ovalbumin-sensitized mouse model of allergic inflammation and asthma used in these studies was as described by Singer et al. (2004), supra. As a negative control, a control peptide containing an N-terminal myristoyl group and the same amino acids as MANS peptide but arranged in random order (i.e., the random N-terminal sequence, RNS, myristoyl-peptide 232) was tested alongside the proposed active peptides. BP2 mice, aged 6-8 wks, were immunized subcutaneously twice at weekly intervals with 1 μg of ovalbumin. After 14 days of sensitization, the animals were exposed to aerosolized ovalbumin, which causes a pronounced goblet cell hyperplasia after 72 hours. At the 72 hr time point, the secretagogue, methacholine ([…]) was delivered using a Buxco system nebulizer providing a fine aerosol for 90 seconds. Fifteen min prior to the secretagogue challenge, 50 μL of the test peptide, at 3 different concentrations (10 μM, 100 μM, or 140 μM), was administered by intratracheal route. The RNS peptide was tested at the highest dose level only (50 μL of 140 μM solution). […] Each experiment was carried out in 6 mice per point, and each set of experiments was repeated 3 times. To test strain-to-strain variations, the above experiment was repeated in Balb/C mice under similar protocol. Both stimulated and unstimulated mucin secretion, in mice treated with […] sodium acetate (data not shown), were identical to saline control. Following the methacholine challenge, the animals were sacrificed and bronchoalveolar lavage (BAL) performed on 6 animals per group for analysis of secreted mucin.
Mice were sacrificed by cervical dislocation, followed by rapid exposure of the trachea and insertion of a cannula through a small incision. Bronchoalveolar lavage (BAL) fluid was collected with 0.5 ml followed by 3×1 ml PBS containing PMSF (5 mM), EDTA (5 mM), and DTT (5 mM). BAL fluid was separated into cell-free and cell fractions via brief centrifugation prior to any analyses being performed. The cell-free supernatants were analyzed for the presence of mucin via an ELISA method using anti-mucin antibodies shown to react with mouse mucin. Specifically, a mouse anti-MUC5AC antibody that recognizes the carbohydrate portion of secreted mucin was used in these assays. Data generated from each BAL sample were normalized to total protein as determined by Bradford assay. Mucin content was expressed as the value obtained with the anti-mucin antibody minus that obtained with the non-immune control antibody. All ELISA data were statistically examined using a one-way ANOVA.

[6] = human plasma, 37° C., 2nd experiment, read-out: Plasma t1/2 (2nd exp.) (converted)
[7] = human BALF from COPD patients, 1st experiment, read-out: BALF t1/2 (1st exp.) (converted)
[8] = human plasma, 37° C., 1st experiment, read-out: Plasma t1/2 (1st exp.) (converted)

Compound: C[C@@H]1NC(=O)CNC(=O)[C@H](CCCCN)NC(=O)[C@H](C)NC(=O)[C@H](C)NC(=O)[C@H]([C@@H](C)O)NC(=O)[C@H](CCCCN)NC(=O)[C@H](CO)NC(=O)[C@H](Cc2ccccc2)NC(=O)[C@H](CCC(N)=O)NC1=O [cyclic-peptide 106] (cyclo(GAQFSKTAAK))
solubility [1]: > 150 mg/mL
half-life [2, 6]: 1.04 h
half-life ([3]; human CF mucus, 1st experiment, read-out: Mucus t1/2 (1st exp.) (converted)): 1.1 h
half-life ([3]; human CF mucus, 2nd experiment, read-out: Mucus t1/2 (2nd exp.) (converted)): 2 h

half-life [4]: 1.03 h
solubility [1]: > 10 mg/mL
half-life ([2]; Plasma t1/2 (1st exp.)): 1.23 h
half-life ([2]; Plasma t1/2 (2nd exp.)): 0.9 h
half-life ([3]; cerebrospinal or other body fluid, pH 7, Mucus t1/2 (1st exp.)): 9.53 h
half-life ([3]; cerebrospinal or other body fluid, pH 7, Mucus t1/2 (2nd exp.)): 3 h
Compound: CCCCCCCCCCCCCC(=O)NCC(=O)N[C@@H](C)C(=O)N[C@@H](CCC(N)=O)C(=O)N[C@@H](Cc1ccccc1)C(=O)N[C@@H](CO)C(=O)N[C@@H](CCCCN)C(=O)N[C@H](C(=O)N[C@@H](C)C(=O)N[C@@H](C)C(=O)N[C@@H](CCCCN)C(=O)O)[C@@H](C)O [myr-peptide 106] (Myristoyl-GAQFSKTAAK-OH)
Mucin Secretion % control [5]: 33.6 % control
Mucin Secretion % of control ([5]; peptide 10 μM): 74*+ % of control
Mucin Secretion % of control ([5]; peptide 100 μM): 24** % of control

Compound: CCCCCCCCCCCCCC(=O)NCC(=O)N[C@@H](C)C(=O)N[C@@H](CCC(N)=O)C(=O)N[C@@H](Cc1ccccc1)C(=O)N[C@@H](CO)C(=O)N[C@@H](CCCCN)C(=O)N[C@H](C(=O)N[C@@H](CCCCN)C(=O)N[C@@H](C)C(=O)N[C@@H](CCCCN)C(=O)NCC(=O)N[C@@H](CCC(=O)O)C(N)=O)[C@@H](C)O [myr-peptide 234-NH2] (Myristoyl-GAQFSKTKAKGE-NH2)
half-life [4, 7]: 1.7 h
solubility [1]: < 2 mg/mL
half-life [2, 8]: 3.82 h
Mucin Secretion % control [5]: 27.8 % control

Compound: CCCCCCCCCCCCCC(=O)NCC(=O)N[C@@H](C)C(=O)N[C@@H](CCC(N)=O)C(=O)N[C@@H](C)C(=O)N[C@@H](CO)C(=O)N[C@@H](CCCCN)C(=O)N[C@H](C(=O)N[C@@H](C)C(=O)N[C@@H](C)C(=O)N[C@@H](CCCCN)C(=O)O)[C@@H](C)O [myr-peptide 236] (Myristoyl-GAQASKTAAK-OH)
half-life ([4]; cerebrospinal or other body fluid, human BALF from COPD patients, 1st experiment, read-out: BALF t1/2 (1st exp.) (converted)): 3.55 h
half-life ([4]; cerebrospinal or other body fluid, human BALF from COPD patients, 2nd experiment, read-out: BALF t1/2 (2nd exp.) (converted)): 2.94 h
solubility [1]: < 10 mg/mL
half-life [2, 8]: 0.72 h

Compound: Ac-GAQFSKTAAKGE-NH2 [Ac-peptide 79-NH2]
solubility [1]: > 60 mg/mL
half-life [2, 8]: 2.64 h

Compound: H-GAQASKTAAKGE-OH [peptide 237, GAQASKTAAKGE]
solubility [1]: > 80 mg/mL
half-life [2, 8]: 0.49 h
Mucin Secretion % of control ([5]; peptide 10 μM): 67*+ % of control
Mucin Secretion % of control ([5]; peptide 100 μM): 8** % of control

Compound: H-GAQFSKTAAK-NH2 [peptide 106-NH2]
half-life [4, 7]: 4 h
solubility [1]: > 100 mg/mL
half-life [2, 8]: 0.3 h
half-life [2, 6]: 0.13 h
half-life ([3]; cerebrospinal or other body fluid, pH 7, human CF mucus, 1st experiment, read-out: Mucus t1/2 (1st exp.) (converted)): 0.08 h
half-life ([3]; cerebrospinal or other body fluid, pH 7, human CF mucus, 2nd experiment, read-out: Mucus t1/2 (2nd exp.) (converted)): 0.13 h
